Source: US10189796B2, “[4-(1,3,3-trimethyl-2-oxo-3,4-dihydro-1H-quinoxalin-7-yl)phenoxy]ethyloxy compound or salt thereof” (SANTEN PHARMACEUTICAL CO., LTD., priority 2015, dated 2019)

How the values were obtained:
[1] = tested on: exorbital lacrimal gland-removed rat dry eye model; assay: Dry eye syndrome (dry eye) model evaluation test; assay type: in vivo; details: eye drop 5 μL four times a day
[2] = tested on: exorbital lacrimal gland-removed rat dry eye model; assay: Dry eye syndrome (dry eye) model evaluation test; assay type: in vivo; details: eye drop 5 μL four times a day; remark: listed apart in the source
Procedure: In order to evaluate the treatment effect of the present compounds on corneal disorder accompanied by dry eye syndrome (dry eye), a treatment effect on corneal disorder in an exorbital lacrimal gland-removed rat dry eye model was investigated. This model was prepared in accordance with the method of Fujihara, et al. (Invest. Ophthalmol. Vis. Sci., 42(1): 96-100 (2001)). Incidentally, this effect was scored according to the method of Murakami et al. (New Ophthalmologist 21(1): 87-90 (2004)), the extent of corneal disorder was scored and the improvement ratio was calculated from the corneal disorder score of the base agent administered group (control group), the corneal disorder score of the test compound administered group and the corneal disorder score of the normal rat.
A base agent containing a general additive(s) was added to the test compound to prepare test compound suspensions with 0.03% (W/V) and 0.1% (W/V). In addition, a base agent was added to the commercially available drug A to prepare a diluted solution with 0.05% (V/V).
• 1) By using male SD rats, somnopentyl was administered to the rats to apply them general anesthesia, exorbital lacrimal glands were removed, and corneal disorder was induced over 8 weeks thereafter. • 2) The test compound suspension was eye-dropped (instillation dose: 5 μL/time) to both eyes four times a day for 14 days. Incidentally, the base agent was similarly eye-dropped to the administered group (control group), and the commercially available drug A and its diluted solution were similarly eye-dropped. • 3) Fourteen days after the start of eye dropping, the cornea was stained with fluorescein. For each of the upper part, the middle part and the lower part of the cornea, scores of the degree of staining with fluorescein were determined according to the following criteria, and an average value of the total of the scores was calculated. Incidentally, 0.5 was set as an intermediate value between each score of 0, 1, 2 and 3. <<Judgement Standard>>
1: Dyeing is sparse, and the dyed portions of each dot are separated
2: Dyeing is a middle degree and part of the dotted dyed portions is adjacent
3: Dyeing is dense, and the dyed portions of each point are almost adjacent
(Calculation Formula) Corneal disorder improvement ratio (%) of the test compound administered group=(Ao−Ax)/(Ao−An)×100 • Ao: Average value of corneal disorder score of the base agent administered group (control group) • Ax: Average value of corneal disorder score of the test compound administered group • An: Average value of corneal disorder score of normal rat (Test Result and Consideration)

[3] = tested on: VEGF-induced retinal elevated vascular permeability model of rabbits; assay: Retinal vascular permeability model evaluation test; assay type: in vivo, rabbit; details: 8% 50 μL/base agent A, intravitreal once; 4 weeks before VEGF induction
Procedure: In order to evaluate the inhibitory effect of the present compounds on VEGF-induced retinal vascular permeability, the inhibitory effect of the present compound on retinal vascular permeability in a VEGF-induced retinal elevated vascular permeability model of rabbits was evaluated. Incidentally, this effect was evaluated by calculating a leaked amount of the fluorescent dye of the base agent administered group (non-induced group), a leaked amount of the fluorescent dye of the base agent administered group (control group) and a leaked amount of the fluorescent dye of the test compound administered group.
To the test compound was added 0.01% Polysorbate 80/0.5% sodium carboxymethyl cellulose/PBS (hereinafter referred to as “base agent A”.), whereby 2% (W/V) or 8% (W/V) of the test compound suspension was prepared. Or else, to the test compound was added PEG400 (hereinafter referred to as “base agent B”.), whereby 6% (W/W) of the test compound solution was prepared.
VEGF solution: humanVEGF165 was dissolved in PBS to prepare 50 μg/mL of VEGF solution.
• 1) A mixed solution (1 mL/kg) of 5% ketamine hydrochloride injection solution and 2% xylazine hydrochloride injection solution with the ratio of 7:1 was intramuscularly administered to rabbits (Dutch male rabbits), and the rabbits were anesthetized. • 2) Tropicamide-phenylephrine hydrochloride ophthalmic solution (trade name: Midlin P) was eye dropped to maintain pupillary mydriasis, and then, the VEGF solution was intravitreally administered. Incidentally, PBS was intravitreally administered to the base agent administration group (non-induced group). • 3) Fluorescein was intravenously administered 2 days after intravitreal administration of VEGF. Two hours after the intravenous administration of fluorescein, an amount of the leaked fluorescent dye in the vitreous body was measured by using a fluorophotometer. (Test Method) • 1) One week before or 4 weeks before VEGF-induction, 50 μL of the test compound suspension (prepared by the base agent A) was intravitreally administered once, or 5 μL of the test compound solution (prepared by the base agent B) was intravitreally administered once. Incidentally, in the base agent administered group (non-induced group) and the base agent administered group (control group), the base agent A was used in place of the test compound suspension, or the base agent B was used in place of the test compound solution. • 2) Inhibition ratio of elevated retinal vascular permeability was calculated according to the following calculation formula. (Calculation Formula) Inhibitory ratio (%) on elevated retinal vascular permeability of the test compound administered group=100×{1−(average value of a leaked fluorescent dye amount in the test compound administered group−average value of a leaked fluorescent dye amount in the base agent administered group (non-induced group))/(average value of a leaked fluorescent dye amount in the base agent administered group (control group)−average value of a leaked fluorescent dye amount of the base agent administered group (non-induced group))}

Row | SMILES | Corneal disorder improvement ratio (%) After 7 days eye dropping ([1]; 0.1%) | Corneal disorder improvement ratio (%) After 14 days eye dropping ([2]; 0.1%) | Corneal disorder improvement ratio (%) After 7 days eye dropping ([1]; 0.03%) | Corneal disorder improvement ratio (%) After 14 days eye dropping ([2]; 0.03%) | Inhibitory ratio (%) on elevated vascular permeability [3]
1 | COc1cc(OC[C@H](C)OC(=O)C(O)CO)ccc1-c1ccc2c(c1COc1cc(F)ccc1C)N(C)C(=O)C(C)(C)N2 (stereo partly drawn) [Compound 13-1, (S)-7-[4-[2-(2,3-dihydroxypropanoyl)oxypropyl]oxy-2-methoxyphenyl]-8-(5-fluoro-2-methylphenoxymethyl)-1,3,3-trimethyl-3,4-dihydro-1H-quinoxalin-2-one] | 38% | 46% | – | – | –
2 | COc1cc(OC[C@H](C)OC(=O)CCC(=O)O)ccc1-c1ccc2c(c1COc1cc(F)ccc1C)N(C)C(=O)C(C)(C)N2 [Compound 12-1, (S)-7-[4-[2-(3-carboxypropanoyloxy)propyl]oxy-2-methoxyphenyl]-8-(5-fluoro-2-methylphenoxymethyl)-1,3,3-trimethyl-3,4-dihydro-1H-quinoxalin-2-one] | 42% | 58% | 33% | 48% | –
3 | COc1cc(OC[C@H](CC#N)OP(=O)(O)O)ccc1-c1ccc2c(c1COc1cc(F)ccc1C)N(C)C(=O)C(C)(C)N2 [Compound 14-3, (S)-7-[4-(3-cyano-2-phosphonohydroxypropyl)oxy-2-methoxyphenyl]-8-(5-fluoro-2-methylphenoxymethyl)-1,3,3-trimethyl-3,4-dihydro-1H-quinoxalin-2-one] | – | – | – | – | 89%
